Patent US20090176887A1, “Biocidal Compositions and Methods” (priority 2006, published 2009)

Tests used:
Assay in all cases: Broth dilution method for determining MIC
Settings in all cases: pH adjusted to about 7, blend as ascorbic acid:ADBAC/DDAC
E coli = type: cell-based, Escherichia coli
Experimental: (§1) The synergistic activities of different components in a composition (control, conventional comparative, or of the present technology) is determined by the method described by Kull et al. in […], Vol. 9, pages 538-541 (1961), which uses a synergy index to indicates whether synergy exists. A synergy index less than one (<1) indicates synergy; a synergy index of one (1) indicates additivity; a synergy index greater than one (>1) indicates antagonism.
(§2) When applied to Example 1 below, the synergy index of L-ascorbic acid and ADBAC/DDAC can be determined by the following equation:
(§3) Synergy Index=Qa/QA+Qb/QB, […]
(§4) The Minimum Inhibitory Concentration (MIC) of a chemical against a certain bacterium is determined according to the broth dilution method described in National Committee for Clinical Laboratory Standards entitled, “Methods for Dilution Antimicrobial Susceptibility Test for Bacteria that Grow Aerobically” document M7-A2, 2nd ed., 10:8, 1990. […]
(§5) In this example, standard MIC values of ascorbic acid, ADBAC/DDAC, and a 1:1 blend of ascorbic acid and ADBAC/DDAC were determined against E coli, S. aureus, and P. aeruginosa according to the broth dilution method introduced above. […] The synergy index of the 1:1 blend of ascorbic acid and ADBAC/DDAC against each of the biocidal targets was then calculated according to the method as described above.

S. aureus = type: cell-based, Staphylococcus aureus
Experimental: as §1, §2, §3, §4, §5

P. aeruginosa = type: cell-based, Pseudomonas aeruginosa
Experimental: as §1, §2, §3, §4, §5

Measured: MIC

O=C1O[C@H]([C@@H](O)CO)C(O)=C1O [L-Ascorbic Acid]
>10,000 ppm, active: E coli | S. aureus | P. aeruginosa
